ChEMBL document CHEMBL1142824, “Discovery of a novel, potent and selective human beta3-adrenergic receptor agonist” (Bioorg Med Chem Lett, 2005)

What was measured:
[1] = target: Beta-1 adrenergic receptor (Homo sapiens, UniProt P08588)
Description: Agonistic activity was assessed by measuring cAMP accumulation in CHO cell lines expressing cloned human Beta-1 adrenergic receptor

[2] = target: Beta-3 adrenergic receptor (Homo sapiens, UniProt P13945); assay: Agonistic activity was assessed by measuring cAMP accumulation in CHO cell lines expressing cloned human Beta-3 adrenergic receptor; assay type: functional, cell-based
[3] = Percent bioavailability after intravenous dose of 1 mg/kg; assay type: ADME, organism-based; details: rat, in vivo
[4] = Percent bioavailability after intravenous dose of 0.32 mg/kg; assay type: ADME, organism-based, Canis lupus familiaris; details: dog, in vivo
[5] = Total clearance rate after intravenous dose of 1 mg/kg; assay type: ADME, organism-based; set-up: dose 1 mg/kg, route intravenous; details: rat, in vivo, read-out: CLtot
[6] = Total clearance rate after intravenous dose of 0.32 mg/kg; assay type: ADME, organism-based, Canis lupus familiaris; set-up: dose 0.32 mg/kg, route intravenous; details: dog, in vivo, read-out: CLtot
[7] = target: Beta-2 adrenergic receptor (Homo sapiens, UniProt P07550); assay: Agonistic activity was assessed by measuring cAMP accumulation in CHO cell lines expressing cloned human Beta-2 adrenergic receptor; assay type: functional, cell-based
Chain of Beta-2 adrenergic receptor (P07550 whole entry): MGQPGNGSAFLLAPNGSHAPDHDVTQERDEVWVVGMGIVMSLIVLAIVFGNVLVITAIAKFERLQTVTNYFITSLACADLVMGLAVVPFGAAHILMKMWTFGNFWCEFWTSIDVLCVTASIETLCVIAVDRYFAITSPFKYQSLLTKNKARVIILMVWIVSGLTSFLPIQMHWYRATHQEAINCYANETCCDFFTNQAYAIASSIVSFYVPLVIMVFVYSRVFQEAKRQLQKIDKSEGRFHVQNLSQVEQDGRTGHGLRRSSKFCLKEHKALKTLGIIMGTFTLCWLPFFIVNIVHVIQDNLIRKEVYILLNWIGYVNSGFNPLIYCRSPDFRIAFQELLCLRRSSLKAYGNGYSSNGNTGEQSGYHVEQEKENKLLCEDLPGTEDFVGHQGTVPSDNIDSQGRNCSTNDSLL

[8] = target: Beta-2 adrenergic receptor and beta-3 adrenergic receptor (Homo sapiens) (UniProt P07550+P13945); assay: Ratio of agonistic activity to produce cAMP by stimulating beta-2 and beta-3 adrenergic receptor in chinese hamster ovary cells; assay type: functional, cell-based
[9] = Maximum plasma concentration after orally administered dose of 3.2 mg/kg; assay type: ADME, organism-based; set-up: dose 3.2 mg/kg, route oral; details: rat, po
[10] = Area under concentration-time curve after orally administered dose of 3.2 mg/kg; assay type: ADME, organism-based; set-up: dose 3.2 mg/kg, route oral; details: rat, in vivo, po
[11] = Maximum plasma concentration after orally administered dose of 0.32 mg/kg; assay type: ADME, organism-based, Canis lupus familiaris; set-up: dose 0.32 mg/kg, route oral; details: dog, po
[12] = Half life of compound after intravenous dose of 0.32 mg/kg; assay type: ADME, organism-based, Canis lupus familiaris; set-up: dose 0.32 mg/kg, route intravenous; details: dog, in vivo
[13] = Area under concentration-time curve after orally administered dose of 0.32 mg/kg; assay type: ADME, organism-based, Canis lupus familiaris; set-up: dose 0.32 mg/kg, route oral; details: dog, in vivo, po
[14] = Half life of compound after intravenous dose of 1 mg/kg; assay type: ADME, organism-based; set-up: dose 1 mg/kg, route intravenous; details: rat, in vivo

Chain of Beta-1 adrenergic receptor (P08588 whole entry): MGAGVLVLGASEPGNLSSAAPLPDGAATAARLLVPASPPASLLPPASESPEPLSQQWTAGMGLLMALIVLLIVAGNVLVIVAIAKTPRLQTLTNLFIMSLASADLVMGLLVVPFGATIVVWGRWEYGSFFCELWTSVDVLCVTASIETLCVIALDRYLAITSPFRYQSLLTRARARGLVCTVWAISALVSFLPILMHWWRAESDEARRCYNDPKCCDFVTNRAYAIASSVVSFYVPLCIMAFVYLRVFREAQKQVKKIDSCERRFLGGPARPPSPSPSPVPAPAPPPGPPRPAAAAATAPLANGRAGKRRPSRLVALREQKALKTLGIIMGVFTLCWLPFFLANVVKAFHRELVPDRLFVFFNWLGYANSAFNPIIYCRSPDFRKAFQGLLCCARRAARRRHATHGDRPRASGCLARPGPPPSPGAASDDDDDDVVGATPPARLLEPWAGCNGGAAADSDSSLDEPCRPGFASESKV
Chain of Beta-3 adrenergic receptor (P13945 whole entry): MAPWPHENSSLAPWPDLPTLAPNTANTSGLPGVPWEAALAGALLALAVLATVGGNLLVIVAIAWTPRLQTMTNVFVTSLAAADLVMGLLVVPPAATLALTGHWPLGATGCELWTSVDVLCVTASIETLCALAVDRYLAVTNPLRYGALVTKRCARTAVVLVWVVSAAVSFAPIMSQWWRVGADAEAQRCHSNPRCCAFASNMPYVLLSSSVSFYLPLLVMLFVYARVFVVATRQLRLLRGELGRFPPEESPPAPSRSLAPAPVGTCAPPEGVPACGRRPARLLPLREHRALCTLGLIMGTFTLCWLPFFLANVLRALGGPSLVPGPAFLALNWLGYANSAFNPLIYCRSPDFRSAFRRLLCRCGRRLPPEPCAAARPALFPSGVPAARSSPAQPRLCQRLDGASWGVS

EC50 [1]	EC50 [2]	Structure (SMILES)	further results
12 nM	1.1 nM	COc1ccccc1NC(=O)Nc1ccc(C[C@@H](CO)NC[C@H](O)COc2ccccc2)cc1	
1.3 nM	1.5 nM	O=C(Nc1ccc(C[C@@H](CO)NC[C@H](O)COc2ccccc2)cc1)Nc1cccc(C(=O)O)c1	
27 nM	4.9 nM	CC(C)NC(=O)Nc1ccc(C[C@@H](CO)NC[C@H](O)COc2ccccc2)cc1	
	22 nM	O=C(Nc1ccccc1)Nc1ccc(C[C@@H](CO)NC[C@H](O)COc2cccc3[nH]c4ccccc4c23)cc1	
3.6 nM	1.6 nM	O=C(Nc1ccccc1)Nc1ccc(CCNC[C@H](O)COc2ccccc2)cc1	
20 nM	0.5 nM	O=C(Nc1ccccc1)Nc1ccc(C[C@@H](CO)NC[C@H](O)COc2ccccc2)cc1	bioavailability [3]: 1.1%; bioavailability [4]: 20.3%; clearance [5]: 142 mL/min/kg; clearance [6]: 24.2 mL/min/kg; EC50 [7]: > 100 nM; Selectivity [8]: > 200; Cmax [9]: 4.2 ng/mL; AUC [10]: 4.2 ng·h/mL; Cmax [11]: 52.6 ng/mL; half-life [12]: 8.1 h; AUC [13]: 140 ng·h/mL; T1/2 [14]: 1.3 h
	74 nM	O=C(Nc1ccccc1)Nc1ccc(C[C@@H](CO)NC[C@H](O)c2cccc(Cl)c2)cc1	
51 nM	8.3 nM	CCCNC(=O)Nc1ccc(C[C@@H](CO)NC[C@H](O)COc2ccccc2)cc1	
4 nM	0.8 nM	COc1cccc(NC(=O)Nc2ccc(C[C@@H](CO)NC[C@H](O)COc3ccccc3)cc2)c1	
2.2 nM	2.5 nM	COc1ccc(NC(=O)Nc2ccc(C[C@@H](CO)NC[C@H](O)COc3ccccc3)cc2)cc1	

Structure (SMILES)	EC50 [1]	EC50 [2]	further results
O=C(Nc1ccc(C[C@@H](CO)NC[C@H](O)COc2ccccc2)cc1)Nc1cccc([N+](=O)[O-])c1	0.9 nM	1 nM	
O=C(Nc1ccc(C[C@@H](CO)NC[C@H](O)COc2ccccc2)cc1)NC1CCCCC1	15 nM	2.1 nM	
